# Laboratory results from patent US20210318318A1, “Kinase Activity In Tumors” (Institute For Cancer Research d/b/a The Research Institute …, priority 2018, published 2021).
# Entries after “also recorded” stand apart in the source; their conditions may differ.
# Assays:
# [1] = test system: FAK1, MLC and Paxillin phosphorylation; FAK1 and CHEK1 protein levels; assay: Western blot of signaling in inhibitor-treated HGSOC cells; format: cell-based, human; conditions: 48 hours; for FAK1, MLC and Paxillin phosphorylation: HGSOC (COV362) cells, increasing doses 0.5, 1 or 3 μM
# Experimental: COV362 cells were treated with 0.5, 1 or 3 μM of A-674563 or SB-772077 for 48 hours and signaling monitored by western blot.
# Samples were harvested in MIB lysis buffer, subjected to SDS-PAGE […] and transferred to PVDF membranes before western blotting with primary antibodies. For pMYPT and pMLC blots, cells were harvested in a buffer containing 1% (w/v) SDS, 50 mM Tris pH 7.5 supplemented with protease and phosphatase inhibitors buffer and were passed through QIAshredder columns (Qiagen, 79654), (Unbekandt et al., Cell Commun. Signal., 2014, 12, 54). For the list of primary antibodies used, see Table 4. Secondary HRP-anti-rabbit and HRP-anti-mouse were obtained from ThermoFisher Scientific. SuperSignal West Pico and Femto Chemiluminescent Substrates (Thermo) were used to visualize blots.
# [2] = test system: HGSOC cells; assay: Cell viability of HGSOC cell line panel (Cell Titer Glo); format: cell-based, human
# Experimental: Cells were treated with increasing concentrations of PF-03758309 and cell viability assessed by Cell Titer Glo according to manufacturer's instructions. Data represent the mean of six replicates.
# Cell viability was assessed by Cell Titer Glo according to manufacturing. Data represent the mean of six replicates.
# For short-term growth assays, 3000-5000 cells were plated per well in 96-well plates and allowed to adhere and equilibrate overnight. Drug was added the following morning and after 120 hours of drug treatment, cell viability was assessed using the CellTiter-Glo Luminescent cell viability assay according to manufacturer (Promega). Students t tests were performed for statistical analyses and p values ≤0.05 were considered significant. For colony formation assays, cells were plated in 24-well dishes (3000-5000 cells per well) and incubated overnight before continuous drug treatment for 14 days, with drug and media replaced twice weekly. At the end of treatment, cells were rinsed with PBS and fixed with chilled methanol for 10 minutes at −20° C. Methanol was removed by aspiration, and cells were stained with 0.5% crystal violet in 20% methanol for 20 minutes at room temperature, washed with distilled water, and scanned.
# [3] = target: T1, MRCKA (Homo sapiens, UniProt Q5VT25); assay: BDP5290 target profiling (in vitro kinase assays, MIB/MS proteomic analysis of drug binders); format: binding; set-up: endogenous in cells; host or cells: OVSAHO; conditions: doses <5 μM
# T1 sequence (Q5VT25 whole entry): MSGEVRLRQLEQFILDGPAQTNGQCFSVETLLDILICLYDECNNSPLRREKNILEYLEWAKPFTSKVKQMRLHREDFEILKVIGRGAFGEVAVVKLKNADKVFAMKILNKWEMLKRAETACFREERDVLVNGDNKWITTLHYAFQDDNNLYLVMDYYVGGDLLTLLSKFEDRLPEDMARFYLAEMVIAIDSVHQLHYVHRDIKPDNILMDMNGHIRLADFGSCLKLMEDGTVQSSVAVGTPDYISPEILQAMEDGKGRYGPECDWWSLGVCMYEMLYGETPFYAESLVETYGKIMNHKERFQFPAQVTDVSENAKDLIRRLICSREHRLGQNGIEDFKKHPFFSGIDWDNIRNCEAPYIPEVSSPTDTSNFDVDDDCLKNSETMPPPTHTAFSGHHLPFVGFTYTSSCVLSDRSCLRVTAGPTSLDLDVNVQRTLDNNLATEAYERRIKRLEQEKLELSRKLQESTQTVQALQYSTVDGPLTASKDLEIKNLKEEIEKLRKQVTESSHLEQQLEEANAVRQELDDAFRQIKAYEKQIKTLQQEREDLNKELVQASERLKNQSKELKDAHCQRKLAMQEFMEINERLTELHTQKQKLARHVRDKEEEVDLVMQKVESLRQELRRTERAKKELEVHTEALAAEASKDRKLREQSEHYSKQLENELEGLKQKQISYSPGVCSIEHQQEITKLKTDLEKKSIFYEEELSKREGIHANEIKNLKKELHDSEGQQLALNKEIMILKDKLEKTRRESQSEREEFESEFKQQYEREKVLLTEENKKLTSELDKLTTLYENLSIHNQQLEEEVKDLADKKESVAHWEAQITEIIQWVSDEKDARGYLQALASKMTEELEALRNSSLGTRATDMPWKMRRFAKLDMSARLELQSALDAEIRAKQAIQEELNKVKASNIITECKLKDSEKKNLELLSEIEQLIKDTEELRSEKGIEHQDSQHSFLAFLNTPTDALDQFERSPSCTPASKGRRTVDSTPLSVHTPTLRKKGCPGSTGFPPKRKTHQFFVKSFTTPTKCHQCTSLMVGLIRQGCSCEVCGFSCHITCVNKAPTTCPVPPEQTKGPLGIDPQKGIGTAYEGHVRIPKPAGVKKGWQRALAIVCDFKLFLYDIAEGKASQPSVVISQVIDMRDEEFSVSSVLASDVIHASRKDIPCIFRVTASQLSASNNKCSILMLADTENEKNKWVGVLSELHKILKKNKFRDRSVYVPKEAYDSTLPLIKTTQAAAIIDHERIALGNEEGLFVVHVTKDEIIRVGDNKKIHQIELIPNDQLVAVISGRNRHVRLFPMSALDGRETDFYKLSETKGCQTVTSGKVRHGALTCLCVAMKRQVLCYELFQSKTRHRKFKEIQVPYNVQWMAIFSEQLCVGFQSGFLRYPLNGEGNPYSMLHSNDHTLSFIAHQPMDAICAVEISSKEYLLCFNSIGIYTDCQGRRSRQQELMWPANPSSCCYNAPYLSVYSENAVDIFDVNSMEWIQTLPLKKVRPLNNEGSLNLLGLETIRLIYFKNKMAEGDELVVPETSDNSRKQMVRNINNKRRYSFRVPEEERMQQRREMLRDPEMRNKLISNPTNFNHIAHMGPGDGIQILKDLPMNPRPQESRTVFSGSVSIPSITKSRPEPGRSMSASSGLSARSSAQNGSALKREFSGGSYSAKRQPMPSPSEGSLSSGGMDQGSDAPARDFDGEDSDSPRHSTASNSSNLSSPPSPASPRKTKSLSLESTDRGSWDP
# Experimental: PCA plot of MIB-determined SILAC ratios.
# (§1) Statistical kinases are identified using Students T-tests with FDR 0.05.
# (§2) Lysates were then incubated with MIBs for 45 minutes at 4° C. (Medard et al., J. Proteome Res., 2015, 14, 1574-1586) and added to gravity flow columns. The MIB preparation protocol was subsequently followed excluding the reduction and alkylation steps. Following methanol/chloroform precipitation, the precipitated pellet was resuspended in 20 μL complete MIBs lysis buffer and 4 μL 6×LSB was added to each sample. Samples were boiled at 100° C. for 5 minutes and subjected to western blot analysis. For the selectivity assay analyzed via LC-MS/MS, 5 mg OVSAHO lysates were preincubated with the same drug concentrations and incubated with MIBs, and the MIB preparation protocol was followed.
# [4] = target: T1, MRCKA; conditions: Unbekandt et al., 2014; cited from earlier work
# [5] = target: T2, MRCKB (Homo sapiens, UniProt Q9Y5S2); assay: BDP5290 target profiling (in vitro kinase assays, MIB/MS and MIB-bead selectivity profiling); format: binding
# T2 construct: endogenous in cells; host or cells: OVSAHO
# T2 sequence (Q9Y5S2 whole entry): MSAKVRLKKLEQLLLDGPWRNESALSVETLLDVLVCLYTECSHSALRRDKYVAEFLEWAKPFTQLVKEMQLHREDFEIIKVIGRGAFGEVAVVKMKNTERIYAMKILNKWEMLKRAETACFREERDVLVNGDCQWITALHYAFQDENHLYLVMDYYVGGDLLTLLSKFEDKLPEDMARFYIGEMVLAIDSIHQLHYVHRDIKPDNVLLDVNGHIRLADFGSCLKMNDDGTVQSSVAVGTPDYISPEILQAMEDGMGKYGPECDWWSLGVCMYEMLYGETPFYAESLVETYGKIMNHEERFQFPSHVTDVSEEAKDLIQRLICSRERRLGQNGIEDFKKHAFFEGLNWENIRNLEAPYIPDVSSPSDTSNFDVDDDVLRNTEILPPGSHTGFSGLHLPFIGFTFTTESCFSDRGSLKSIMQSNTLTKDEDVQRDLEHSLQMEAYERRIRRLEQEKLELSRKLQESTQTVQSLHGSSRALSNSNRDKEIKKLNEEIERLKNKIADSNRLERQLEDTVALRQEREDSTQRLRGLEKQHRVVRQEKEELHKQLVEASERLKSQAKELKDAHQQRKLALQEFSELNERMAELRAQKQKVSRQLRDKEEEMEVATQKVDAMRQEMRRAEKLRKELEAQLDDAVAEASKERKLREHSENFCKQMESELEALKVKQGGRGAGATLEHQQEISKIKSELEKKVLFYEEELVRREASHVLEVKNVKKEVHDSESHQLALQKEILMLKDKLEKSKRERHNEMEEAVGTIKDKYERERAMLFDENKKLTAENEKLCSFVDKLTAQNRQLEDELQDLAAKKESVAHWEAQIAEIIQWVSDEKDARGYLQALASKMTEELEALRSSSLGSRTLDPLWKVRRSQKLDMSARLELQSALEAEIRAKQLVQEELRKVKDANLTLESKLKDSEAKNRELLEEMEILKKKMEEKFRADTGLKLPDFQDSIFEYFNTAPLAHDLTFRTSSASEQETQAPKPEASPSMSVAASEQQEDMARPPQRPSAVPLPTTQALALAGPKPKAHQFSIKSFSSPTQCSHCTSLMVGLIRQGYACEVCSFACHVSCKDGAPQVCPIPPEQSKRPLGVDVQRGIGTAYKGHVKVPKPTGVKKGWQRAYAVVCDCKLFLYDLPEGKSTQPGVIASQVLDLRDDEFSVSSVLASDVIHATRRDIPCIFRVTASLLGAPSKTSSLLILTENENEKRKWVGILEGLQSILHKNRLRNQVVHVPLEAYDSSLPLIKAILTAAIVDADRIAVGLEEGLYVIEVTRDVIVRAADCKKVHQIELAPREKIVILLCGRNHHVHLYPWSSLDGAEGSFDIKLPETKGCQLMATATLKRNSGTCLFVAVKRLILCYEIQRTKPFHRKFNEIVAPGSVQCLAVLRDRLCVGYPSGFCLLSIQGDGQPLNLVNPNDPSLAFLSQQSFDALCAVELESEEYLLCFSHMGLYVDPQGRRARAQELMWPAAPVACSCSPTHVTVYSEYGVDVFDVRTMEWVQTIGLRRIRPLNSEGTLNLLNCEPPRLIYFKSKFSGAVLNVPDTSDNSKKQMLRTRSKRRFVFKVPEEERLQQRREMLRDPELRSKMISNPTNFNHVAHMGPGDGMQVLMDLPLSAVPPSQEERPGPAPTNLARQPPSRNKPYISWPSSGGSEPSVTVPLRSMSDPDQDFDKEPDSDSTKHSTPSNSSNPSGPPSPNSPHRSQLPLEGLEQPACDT
# Experimental: (§3) MIB-elutions were then analyzed by western blot.
# (§4) Kinome elutions were then analyzed using LC-MS/MS and changes in kinase binding quantified using label free quantitation.
# as §2
# [6] = target: T3, AURKB (Homo sapiens, UniProt Q96GD4); assay: as above; format: binding
# T3 construct: endogenous in cells; host or cells: OVCAR4 cells; OVSAHO and KURAMOCHI lysates
# T3 sequence (Q96GD4 whole entry): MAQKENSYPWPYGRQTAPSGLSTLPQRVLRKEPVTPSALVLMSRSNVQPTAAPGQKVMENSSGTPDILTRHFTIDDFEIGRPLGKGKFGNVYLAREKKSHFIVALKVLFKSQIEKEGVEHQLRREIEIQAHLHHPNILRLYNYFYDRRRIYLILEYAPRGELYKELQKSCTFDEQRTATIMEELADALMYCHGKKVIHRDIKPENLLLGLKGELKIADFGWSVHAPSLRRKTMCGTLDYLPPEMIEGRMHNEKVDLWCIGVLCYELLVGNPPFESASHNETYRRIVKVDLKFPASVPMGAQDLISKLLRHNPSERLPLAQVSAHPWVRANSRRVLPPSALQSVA
# Experimental: as §1, §3, §4, §2
# [7] = target: T4, ROCK2 (Homo sapiens, UniProt O75116); assay: MIB/MS kinome profiling of inhibitor-treated OVSAHO cells; format: cell-based; conditions: 2 μM, 4 hours
# T4 construct: endogenous in cells; host or cells: OVSAHO
# Experimental: (§5) OVSAHO cells were treated with 2 μM of inhibitor for 4 hours and analyzed by MIB/MS. Scatterplot depicts difference in kinase MIB-binding of drug treated relative to control DMSO as determined by Students T-test.
# (§6) MIB-based kinome profiling was performed on several of these molecules in HGSOC cells to determine kinome-wide inhibition profiles.
# Experiments using MIB/MS were performed as previously described (Duncan et al., Cell, 2012, 149, 307-321; and Kurimchak et al., Cell Reports, 2016, 16, 1273-1286). Briefly, cells or tumors were lysed on ice in buffer containing 50 mM HEPES (pH 7.5), 0.5% Triton X-100, 150 mM NaCl, 1 mM EDTA, 1 mM EGTA, 10 mM sodium fluoride, 2.5 mM sodium orthovanadate, 1× protease inhibitor cocktail (Roche), and 1% each of phosphatase inhibitor cocktails 2 and 3 (Sigma). Particulate was removed by centrifugation of lysates at 13,000 rpm for 10 minutes at 4° C. and filtration through 0.2 μm syringe filters. Protein concentrations were determined by BCA analysis (Thermo). To compare kinome signatures within and across such large sample sizes, a super-SILAC method was designed (Neubert et al., Nat. Meth., 2010, 7, 361-362) consisting of a cocktail of cancer cell lines that encompasses the activity of the “cancer kinome” to be used as a control for individual samples. […] An equal amount of the HKS was added to the non-labeled sample (cell, tumor or normal tissue) providing a quantitative strategy to compare kinome activity/levels across samples, amongst treatments and, importantly, across time. […]
# (§7) Proteolytic peptides were resuspended in 0.1% formic acid and separated with a Thermo RSLC Ultimate 3000 on a Thermo Easy-Spray C18 PepMap 75 μm×50 cm C-18 2 μm column with a 240 minute gradient of 4-25% acetonitrile with 0.1% formic acid at 300 nL/min and 50° C. Eluted peptides were analyzed by a Thermo Q Exactive plus mass spectrometer utilizing a top 15 methodology in which the 15 most intense peptide precursor ions were subjected to fragmentation.
# [8] = target: T2, MRCKB; assay: as above; format: cell-based; conditions: 2 μM, 4 hour treatment
# Experimental: (§8) OVSAHO cells were treated with inhibitors at a dose of 2 μM for 4 hours and kinase inhibition profiles determined by MIB/MS. Bar graph depicts % of kinase bound to MIBs relative to DMSO control as determined by label free quantitation.
# as §5, §6
# (§9) Experiments using MIB/MS were performed as previously described (Duncan et al., Cell, 2012, 149, 307-321; and Kurimchak et al., Cell Reports, 2016, 16, 1273-1286). Briefly, cells or tumors were lysed on ice in buffer containing 50 mM HEPES (pH 7.5), 0.5% Triton X-100, 150 mM NaCl, 1 mM EDTA, 1 mM EGTA, 10 mM sodium fluoride, 2.5 mM sodium orthovanadate, 1× protease inhibitor cocktail (Roche), and 1% each of phosphatase inhibitor cocktails 2 and 3 (Sigma). Particulate was removed by centrifugation of lysates at 13,000 rpm for 10 minutes at 4° C. and filtration through 0.2 μm syringe filters. Protein concentrations were determined by BCA analysis (Thermo). To compare kinome signatures within and across such large sample sizes, a super-SILAC method was designed (Neubert et al., Nat. Meth., 2010, 7, 361-362) consisting of a cocktail of cancer cell lines that encompasses the activity of the “cancer kinome” to be used as a control for individual samples. Five cancer cell lines were selected from the NCI-60 panel (UACC257, MOLT4, COL0205, ACHN and PC3) that differed in their origin, gene expression patterns and mutation status. The cancer cell lines were labeled using SILAC and mixed equally providing a diverse SILAC ([^13C6,^15N4] arginine (Arg^10) and […] (Lys^8)) heavy kinome reference standard (HKS) to be used repeatedly in kinome profiling assays. An equal amount of the HKS was added to the non-labeled sample (cell, tumor or normal tissue) providing a quantitative strategy to compare kinome activity/levels across samples, amongst treatments and, importantly, across time. […]
# as §7
# [9] = target: T5, ROCK1 (Homo sapiens, UniProt Q13464); assay: as above; format: cell-based; conditions: 2 μM, 4 hours
# T5 construct: endogenous in cells; host or cells: OVSAHO
# T5 sequence (Q13464 whole entry): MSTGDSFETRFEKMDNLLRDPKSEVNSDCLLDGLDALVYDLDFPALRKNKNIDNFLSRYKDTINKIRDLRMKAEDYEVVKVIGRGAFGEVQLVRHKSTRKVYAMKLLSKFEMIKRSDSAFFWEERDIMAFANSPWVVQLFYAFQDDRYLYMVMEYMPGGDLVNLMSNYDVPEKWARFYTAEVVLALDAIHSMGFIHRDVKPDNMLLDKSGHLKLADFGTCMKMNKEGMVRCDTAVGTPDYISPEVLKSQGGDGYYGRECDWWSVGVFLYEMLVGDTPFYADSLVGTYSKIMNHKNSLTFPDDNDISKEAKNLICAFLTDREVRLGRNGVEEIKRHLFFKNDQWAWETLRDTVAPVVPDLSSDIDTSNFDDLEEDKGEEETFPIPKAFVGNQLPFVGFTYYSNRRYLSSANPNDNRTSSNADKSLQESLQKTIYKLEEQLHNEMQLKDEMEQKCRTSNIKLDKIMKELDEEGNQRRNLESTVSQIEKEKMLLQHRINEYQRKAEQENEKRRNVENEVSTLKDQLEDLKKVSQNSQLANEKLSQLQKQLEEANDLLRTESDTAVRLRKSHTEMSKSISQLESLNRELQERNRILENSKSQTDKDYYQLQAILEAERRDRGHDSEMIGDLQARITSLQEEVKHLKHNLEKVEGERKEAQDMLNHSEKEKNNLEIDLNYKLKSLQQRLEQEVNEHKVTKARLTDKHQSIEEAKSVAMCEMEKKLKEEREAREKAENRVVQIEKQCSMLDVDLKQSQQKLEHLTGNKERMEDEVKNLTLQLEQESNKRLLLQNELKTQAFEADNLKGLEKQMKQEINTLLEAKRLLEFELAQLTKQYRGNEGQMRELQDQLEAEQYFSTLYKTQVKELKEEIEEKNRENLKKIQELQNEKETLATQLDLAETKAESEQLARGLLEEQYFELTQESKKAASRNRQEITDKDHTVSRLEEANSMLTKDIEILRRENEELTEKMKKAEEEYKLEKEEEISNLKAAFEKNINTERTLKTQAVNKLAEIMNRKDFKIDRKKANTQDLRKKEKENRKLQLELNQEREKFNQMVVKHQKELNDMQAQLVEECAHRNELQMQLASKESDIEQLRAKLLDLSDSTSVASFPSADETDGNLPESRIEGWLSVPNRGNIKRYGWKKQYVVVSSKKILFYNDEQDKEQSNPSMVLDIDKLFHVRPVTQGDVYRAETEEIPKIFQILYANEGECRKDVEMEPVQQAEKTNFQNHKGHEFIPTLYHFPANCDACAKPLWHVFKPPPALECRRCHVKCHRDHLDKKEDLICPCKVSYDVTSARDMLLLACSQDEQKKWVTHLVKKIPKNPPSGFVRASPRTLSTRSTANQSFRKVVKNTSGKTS
# Experimental: as §5
# Scatter plot depicts statistical differences in MIB-binding as a ratio of inhibitor/DMSO. Cells were treated with inhibitors at a dose of 2 μM and subjected to MIB/MS. Changes in MIB-binding were quantified using label free quantitation. Data presented in (A) are triplicate experiments SEM. *p≤0.05 by student's t-test.
# as §6
# Experiments using MIB/MS were performed as previously described (Duncan et al., Cell, 2012, 149, 307-321; and Kurimchak et al., Cell Reports, 2016, 16, 1273-1286). […] Protein concentrations were determined by BCA analysis (Thermo). […] An equal amount of the HKS was added to the non-labeled sample (cell, tumor or normal tissue) providing a quantitative strategy to compare kinome activity/levels across samples, amongst treatments and, importantly, across time. […]
# [10] = target: T1, MRCKA; assay: as above; format: cell-based; set-up: endogenous in cells; host or cells: OVSAHO; conditions: 2 μM, 4 hour treatment
# Experimental: as §8, §5, §6, §9, §7
# [11] = test system: HGSOC cells; assay: Drug response in cells depleted of MRCKA by siRNA (Cell Titer Glo, cleaved PARP blots); format: cell-based, human
# Experimental: (§10) Cells transfected with control or MRKCA siRNAs were treated with increasing doses of carboplatin. Cell viability was assessed by Cell Titer Glo according to manufacturer's instructions. Data represent the mean of six replicates. GR50 were determined using PRISM.
# Cells transfected with control or MRKCA siRNAs were treated with increasing doses of olaparib. Cell viability was assessed by Cell Titer Glo according to manufacturer's instructions. Data represent the mean of six replicates. GR50 were determined using PRISM.
# (§11) To explore if blocking dark kinases AAK1, STK38 or MRCKA activity in combination with current therapies improves drug efficacy, OVCAR4 cells depleted of AAK1, STK38 or MRCKA were treated with increasing doses of carboplatin, olaparib, JQ1, or a variety of kinase inhibitors in clinical trials for HGSOC.
# (§12) siRNA transfections were performed using 25 nM siRNA duplex and the reverse transfection protocol. 3000-5000 cells per well were added to 96 well plates with media containing the siRNA and transfection reagent (Lipofectamine RNAiMax) according to the manufacturer's instructions. In experiments where inhibitors were used, the inhibitor was added at the time of transfection. Cells were allowed to grow for 72-120 hours post-transfection prior to CellTiter Glo (Promega) analysis. Two-to-three independent experiments were performed with each cell line and siRNA. Students t tests were performed for statistical analyses and p values ≤0.05 were considered significant. For western blot studies, the same procedure was performed with volumes and cell numbers proportionally scaled to a 60 mm or 10 cm dish, and cells were collected 24-72 hours post-transfection. siRNA product numbers and manufacturers are listed in Table 5.
# [12] = test system: OVCAR4 cells; assay: Drug growth inhibition in cells depleted of dark kinases by siRNA (Cell Titer Glo); format: cell-based, human; conditions: increasing doses of drug
# Experimental: OVCAR4 cells were transfected with control nontargeting or dark kinase siRNAs and treated with escalating doses of appropriate drugs.
# as §11, §12
# [13] = test system: carboplatin-resistant COV362 cells; assay: Carboplatin response in cells depleted of MRCKA by siRNA; format: cell-based, human
# Experimental: as §10, §11
# as §12, with “For western blot studies, the same procedure was performed with volumes and cell numbers proportionally scaled to a 60 mm or 10 cm dish, and cells were collected 24-72 hours post-transfection. siRNA product numbers and manufacturers are listed in Table 5.” left out
# [14] = cell lysates incubated with increasing doses for 30 minutes
smiles,measurement,setting,value
O=C(Nc1cn[nH]c1-c1ccccn1)c1nn(C2CCNCC2)cc1Cl [BDP5290],"pMLC, pMYPT1, pFAK or total FAK1 or CHEK1 levels","[1]; HGSOC cells, 0.5, 1 or 3 μM",did not reduce
same,potency in HGSOC cells,[2]; doses <5 μM,minimal potency
same,cell viability of HGSOC cells,"[2]; increasing concentrations, Cell Titer Glo",inhibiting HGSOC cell viability at higher concentrations; also recorded: minimal effects
same,activity against primary target MRCKA in HGSOC cells,[3],little activity
same,Ki,[4],10 nM
same,elution of MRCKB from MIB beads (western blot),[5]; [14],not MRCKB
same,activity against primary target MRCKB in HGSOC cells,[5]; doses <5 μM,little activity
same,elution of AURKB from MIB beads (western blot),[6]; [14],elute AURKB
same,off-target activity on AURKB in HGSOC cells,[6]; doses <5 μM,off-targets
CC1=C(C(=O)Nc2cc(Cl)c3[nH]ncc3c2)C(c2ccc(C(F)(F)F)cc2)CC(=O)N1 (centres unmarked) [GSK466317A],"FAK1, MLC and Paxillin phosphorylation",[1],reduced
same,MIB-binding of ROCK2,[7],reduction in MIB-binding
same,MIB-binding of MRCKB relative to DMSO,[8],Reduced MIB-binding
same,MIB-binding of ROCK1,[9],reduction in MIB-binding
same,MIB-binding of MRCKA relative to DMSO,[10],Reduced MIB-binding
O=C(NCc1cccc(O)c1)Nc1nc(-c2ccncc2)cs1 [RKI-1447],"FAK1, MLC and Paxillin phosphorylation",[1],reduced
same,MIB-binding of ROCK1,[9],reduction in MIB-binding
N.N.O=C([O-])C1(C(=O)[O-])CCC1.[Pt+2] [carboplatin],apoptosis (cleaved PARP) of drug plus MRCKA depletion,[11]; HGSOC cell lines,induced apoptosis better than individual therapies
same,effect of drug on cell viability with MRCKA depletion,"[11]; additional HGSOC cell lines, increasing doses",enhanced the effect of carboplatin
same,growth inhibition by drug with MRCKA knockdown relative to non-targeting control siRNA,[12],enhanced growth inhibition
same,"cell growth and apoptosis, MRCKA knockdown in combination with drug",[13],inhibited cell growth and induced apoptosis
